Counter-ions that a name gives are not always drawn. Like-named read-outs stand apart in the source and are kept apart here. Marks after values point to notes of the source that are not given here.
What was measured:
[1] = system: isolated CE-1 enzyme from porcine liver; assay: CE-1 activity on short chain esters, 1H NMR; type: biochemical; conditions: for k: 26 μmol substrate, conversion over 60 min; for faster converted than ethyl acetate: vs ethyl acetate
From the text: To measure almost exclusively the contribution of carboxyl esterase activity from the CE-2 isoform, human breast cancer cells (MCF-7) were employed. These cells are known from literature to express CE-2 but not to express CE-1 (Byun et al, 2008, Cancer letters 266:238-48). A group of esters was investigated as substrates for CE-1, which contained different structural features. These consisted of esters of un-substituted acids (examples are ethyl acetate, ethyl butyrate, methyl butyrate), esters of acids substituted on C2 (examples are ethyl lactate and ethyl 2-acetoxy propanoate), esters of acids substituted on C3 (examples are ethyl 3-hydroxy butyrate and ethyl 3-acetoxy butanoate), esters of ring closed acids (example ethyl pyroglutamate), esters of di-acids (examples are diethyl succinate and dimethyl succinate), esters of tri-acids (example triethyl citrate), ethyl esters of beta-keto acids (example ethyl acetoacetate). Also esters with large alcohol groups and small acid groups were investigated. In this group, the acid part of the molecule was always acetate and different structural properties of the alcohol were investigated. These consisted of esters of un-substituted alcohols (examples ethyl acetate and butyl acetate), esters of branched chain alcohols (examples t-butyl acetate, ethyl 3-acetoxy butanoate and 2-acetoxy propionate), esters of aromatic alcohols (example benzyl acetate), esters of diols (example ethyleneglycol diacetate), esters of triols (example triacetin). […] Similarly, a group of esters which contained different structural features was investigated as substrates for CE-2. CE-2 substrates are described in the literature to consist of a small acid group and a larger alcohol group. All included esters were acetate esters (i.e. esters of acetic acid) in the interest of keeping the acid moiety the smallest possible. The acetate esters measured for CE-2 activity were therefore the same as those measured in the second group of possible substrates for CE-1.
The CE-1 experiments were performed with commercially available CE-1 from porcine liver. Individual samples of the substrates were all prepared the following way: 26 μmol was weighted in an eppendorf tube. 550 μl deuterated phosphate buffer (200 mM, pH 7.5) was added and the substrate was brought into solution by whirl mixing. The solution was transferred to a 5 mm NMR tube and inserted in the spectrometer at 37° C. A reference experiment was acquired on the substrate solution without enzyme after which 10 μl of an esterase stock solution (37 U/ml in deuterated phosphate buffer) was added in the top of the tube. The sample was mixed and returned to the spectrometer. A series of thermal 1D ^1H NMR experiments were recorded every 5 min for 60 min. The data were analysed with MNOVA software and measured as percentage conversion of substrate calculated to account for the amount of substrate converted over 60 min. The numbers are given in μmol/min.

[2] = molecular target: T1, CE-2 in lysed human breast cancer cells (MCF-7) (Homo sapiens, UniProt O00748); assay: CE-2 activity on acetate esters in lysed MCF-7 cells, 1H NMR; type: biochemical; conditions: for k: 5 million lysed MCF-7 cells, 37° C., 1 hour; for hydrolysis by CE-2, in words: lysed MCF-7 cells
T1 construct: endogenous in cells; host or cells: MCF-7 (sonicated lysate)
T1 sequence (O00748 27-559): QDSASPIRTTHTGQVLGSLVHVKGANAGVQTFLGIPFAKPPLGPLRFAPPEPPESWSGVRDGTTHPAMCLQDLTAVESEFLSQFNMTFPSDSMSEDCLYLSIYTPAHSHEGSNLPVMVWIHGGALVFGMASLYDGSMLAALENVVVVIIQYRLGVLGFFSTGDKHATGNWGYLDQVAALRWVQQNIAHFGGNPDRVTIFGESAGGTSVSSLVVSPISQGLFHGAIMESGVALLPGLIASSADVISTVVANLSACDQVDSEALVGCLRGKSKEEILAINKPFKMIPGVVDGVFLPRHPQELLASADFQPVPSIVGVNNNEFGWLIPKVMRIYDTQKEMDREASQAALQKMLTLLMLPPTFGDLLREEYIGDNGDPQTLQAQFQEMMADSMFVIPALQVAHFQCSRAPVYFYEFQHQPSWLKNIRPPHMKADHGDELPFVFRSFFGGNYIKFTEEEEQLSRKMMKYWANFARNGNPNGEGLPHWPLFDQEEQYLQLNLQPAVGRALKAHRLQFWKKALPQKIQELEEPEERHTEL
Experimental: Different classes of short chain esters, fulfilling the requirements for the hyperpolarization technique (stable, soluble, low molecular weight compounds (<400 Da), were evaluated as substrates for carboxyl esterases with the aim to identify esters as similar or better substrates for carboxyl esterases than 1,3-^13C2 ethyl acetoacetate. In most human cell types, including a wide range of cancer cells and lymphocytes, the activity of carboxyl esterase is dominated by the activities of isoforms 1 and 2 (CE-1 and CE-2). To measure exclusively the hydrolysis of carboxyl esterase from the CE-1 isoform, an isolated enzyme from porcine liver was applied. To measure almost exclusively the contribution of carboxyl esterase activity from the CE-2 isoform, human breast cancer cells (MCF-7) were employed. These cells are known from literature to express CE-2 but not to express CE-1 (Byun et al, 2008, Cancer letters 266:238-48). A group of esters was investigated as substrates for CE-1, which contained different structural features. […] Also esters with large alcohol groups and small acid groups were investigated. In this group, the acid part of the molecule was always acetate and different structural properties of the alcohol were investigated. These consisted of esters of un-substituted alcohols (examples ethyl acetate and butyl acetate), esters of branched chain alcohols (examples t-butyl acetate, ethyl 3-acetoxy butanoate and 2-acetoxy propionate), esters of aromatic alcohols (example benzyl acetate), esters of diols (example ethyleneglycol diacetate), esters of triols (example triacetin). Esters of alpha-keto acids were too unstable to be investigated in this assay. Esters of larger alcohols are not water soluble and therefore not relevant substrates for the purpose of the invention. Similarly, a group of esters which contained different structural features was investigated as substrates for CE-2. CE-2 substrates are described in the literature to consist of a small acid group and a larger alcohol group. All included esters were acetate esters (i.e. esters of acetic acid) in the interest of keeping the acid moiety the smallest possible. The acetate esters measured for CE-2 activity were therefore the same as those measured in the second group of possible substrates for CE-1. The CE-2 experiments were performed with lysed breast cancer cells (MCF-7). MCF-7 cells were grown in RPMI medium with 10% FBS and antibiotics. They were at confluence harvested by trypsination and washed once with 5 ml PBS. They were spun down and resuspended in PBS to a concentration of 20 mill. cells/ml. The cells were hereafter sonicated on ice (50% amplitude, 1 min, 3 sec pulse). 250 μl sonicated cell suspension was mixed with 250 μl 400 mM phosphate buffer pH 7.3. […] The substrate was added (50 μl, 60 mM) and the tube turned for mixing before it was inserted into the spectrometer. An initial spectrum was acquired and the sample was hereafter placed at 37° C. for 1 hour in a water bath. The sample was again inserted into the magnet and a second spectrum was recorded. The data was analysed with MNOVA software and measured as percentage conversion of substrate calculated to account for the amount of substrate converted over 60 min. The numbers are given in μmol/hour.

[3] = system: carboxyl esterase in lysed breast cancer cells (MCF-7); assay: Carboxyl esterase activity in cell extract, 1H NMR; type: biochemical, human; conditions: for Metabolic conversion, Breast cancer cells MCF-7: 5 million lysed cells, 37° C.
Experimental: (§1) The hydrolysis of the substrates was investigated in cell extracts. To test substrates without isotope labelling for carboxyl esterase activity in a cellular background, a ^1H NMR assay was applied. Human breast cancer cells (MCF-7) and human prostate cancer cells (PC-3) were grown in RPMI medium with 10% FBS and antibiotics. They were at confluence harvested by trypsination and washed once with 5 ml PBS. They were spun down and resuspended in PBS to a concentration of 20 mill. cells/ml. The cells were hereafter sonicated on ice (50% amplitude, 1 min, 3 sec pulse). Human lymphocytes were purified from whole blood. Whole blood samples were drawn from healthy volunteer into heparinised venous blood collection tubes (Venosafe vacumtubes from Terumo). For each experiment, the blood was purified freshly: Three and a half 10 mL tubes of blood were pooled in each of four 50 mL Leucosep (Greiner) tubes prepared with 15 mL Histopaque 1077 (Sigma). The Leucosep tubes were spun for 15 min at 800× g at 24 C. The plasma was removed and the white blood cells were transferred to a 50 mL falcon tube by decanting and diluted 1:2 in PBS-Mg—Ca for a total volume of 50 mL. The cells were sedimented by centrifugation at 250×g for 60 min. Diluting with trypan blue and counting in hemocytometer determined the total number of lymphocytes before sedimentation. All cells were viable and the total number of cells in each cell batch was approx. 60 million. The lymphocytes were redissolved to a concentration of 20 million cells/ml. The cells were hereafter sonicated on ice (50% amplitude, 1 min, 3 sec pulse).
(§2) 250 μl sonicated cell suspension was mixed with 250 μl 400 mM phosphate buffer pH 7.3. This solution was transferred to a 5 mm NMR tube and warmed on a water bath to 37° C. The substrate was added (50 μl, 60 mM) and the tube turned for mixing before it was inserted into the spectrometer. The data was analyzed with MNOVA software and measured as percentage conversion of substrate calculated to account for the amount of substrate converted over 60 min; numbers are given in μmol/hour.

[4] = system: carboxyl esterase in lysed lymphocytes (B + T cells); assay: Carboxyl esterase activity in cell extract, 1H NMR; type: biochemical, human; conditions: 5 million lysed cells, 37° C.
Experimental: as §1, §2

[5] = system: carboxyl esterase in lysed prostate cancer cells (PC-3); assay: Carboxyl esterase activity in cell extract, 1H NMR; type: biochemical, human; conditions: for Metabolic conversion, Prostate cancer cells PC-3: 5 million lysed cells, 37° C.
Experimental: as §1, §2

CCCCOC(C)=O [Butyl acetate]
k ([1]; 37° C.): 0.04 µmol/min | k [2]: 0.24 µmol/min | hydrolysis by CE-2, in words [2]: hydrolysed to a similar extent

CCOC(=O)CCC(=O)OCC [Diethyl succinate]
Metabolic conversion, Breast cancer cells MCF-7 [3]: 0.12 µmol/h | negative contrast, lower than that of EAA ([3]; breast cancer cells relative to lymphocytes, cell number basis): approx. 3 times | Metabolic conversion, Lymphocytes (B + T cells) [4]: 0.60 µmol/h | Metabolic conversion, Prostate cancer cells PC-3 [5]: 0.48 µmol/h | k ([1]; 37° C.): 0.48 µmol/min | faster converted than ethyl acetate [1]: more than ten times faster converted

COC(=O)CCC(=O)OC [Dimethyl succinate]
k ([1]; 37° C.): 0.41 µmol/min | faster converted than ethyl acetate [1]: more than ten times faster converted

CCOC(=O)CC(C)O (stereo not shown) [Ethyl 3-Hydroxybutyrate]
k ([1]; 37° C.): 0.08 µmol/min

CCOC(=O)CC(C)=O [Ethyl acetoacetate]
Metabolic conversion, Breast cancer cells MCF-7 [3]: 0* umol/hour | contrast in breast cancer cells relative to lymphocytes, in words ([3]; cell number basis, FIG. 9A): highest contrast | Metabolic conversion, Lymphocytes (B + T cells) [4]: 0.15 µmol/h | Metabolic conversion, Prostate cancer cells PC-3 [5]: 0* umol/hour | contrast in prostate cancer cells relative to lymphocytes, in words ([5]; cell number basis, FIG. 9B): highest negative contrast | k ([1]; 37° C.): 0.12 µmol/min

CCOC(=O)C(C)O (stereo not shown) [Ethyl lactate]
k ([1]; 37° C.): 0.11 µmol/min

CCOC(=O)[C@@H]1CCC(=O)N1 [Ethyl pyroglutamate]
conversion by CE-1, in words [1]: only hydrolyzed to a very low extent | k ([1]; 37° C.): 0.02 µmol/min | conversion by CE-1, in words ([1]; listed as ethyl ester of pyroglutamate): barely detectable

CCOC(C)=O [Ethylacetate]
conversion by CE-1, in words [1]: not a good substrate | k ([1]; 37° C.): 0.03 µmol/min | k [2]: 0 µmol/min | hydrolysis by CE-2, in words [2]: not hydrolysed

CCCC(=O)OCC [Ethylbutyrate]
k ([1]; 37° C.): 0.12 µmol/min

CC(=O)OCCOC(C)=O [Ethyleneglycol diacetate]
k ([1]; 37° C.): 0.07 µmol/min | k [2]: 0.18 µmol/min

CCCC(=O)OC [Methylbutyrate]
Metabolic conversion, Breast cancer cells MCF-7 [3]: 0.42 µmol/h | Metabolic conversion, Lymphocytes (B + T cells) [4]: 0.90 µmol/h | Metabolic conversion, Prostate cancer cells PC-3 [5]: 0.51 µmol/h | k ([1]; 37° C.): 0.22 µmol/min

CC(=O)OC(C)(C)C [Tert-butyl acetate]
k ([1]; 37° C.): 0 µmol/min

CCOC(=O)CC(O)(CC(=O)OCC)C(=O)OCC [Triethyl citrate]
conversion by CE-1, in words [1]: only hydrolyzed to a very low extent | k ([1]; 37° C.): 0 µmol/min | conversion by CE-1, in words ([1]; listed as triethyl citrate): no hydrolysis could be detected

CCOC(=O)C(C)OC(C)=O (stereo not shown) [ethyl 2-acetoxy propanoate]
k (μmol/min), acetate ester ([1]; hydrolysis of the acetate ester function, 37° C., 60 min): 0 µmol/min | k (μmol/min), ethyl ester ([1]; hydrolysis of the ethyl ester function, 37° C., 60 min): 0.16 µmol/min | hydrolysis by CE-2, in words [2]: hydrolysed to a similar extent
